Data set [1] is described as follows: Solubility of cladribine in water at various HPCD concentrations (HPLC). Type of data set: physicochemical. The note with it: for solubility at 120 h: pH 7.3. As to the method: The cylodextrin and the buffer salts were solved in Water for Injection and an excess of Cladribine was added. The solution was shaken during 5 days at room temperature and 4° C. The solution was filtered through a 0.2 μm filter.
The solubility of cladribine in water at various concentrations of 2-Hydroxypropyl-β-Cyclodextrin (HPCD) was measured by high performance liquid chromatography. […] Table 2 sets forth the results of the solubility measurements for the HPCD/cladribine formulation of Example 1.

Data set [2] in a line: Stability of cladribine with/without HPCD at pH 1.4 and 8.2 at room temperature. The data set is classed as physicochemical.
Method: The effect of the HPCD on the stability of cladribine at pH 1.4 and 8.2 at room temperature was measured.
Data set [3] is described as follows: Solubility of cladribine in water at various HPCD concentrations (HPLC). Type of data set: physicochemical. The conditions noted are these: no HPCD, temperature not stated, read-out: normal solubility of cladribine in water.
The conditions of data set [4]: in words, cited from earlier work.

Values after ≈ are worked out from the molar mass of the structure shown. “Also recorded” adds a separate entry of the source. Like-named read-outs stand apart in the source and are kept apart here.

Turning to `Nc1nc(Cl)nc2c1ncn2[C@H]1C[C@H](O)[C@@H](CO)O1` [Cladribine, 2-chloro-2'-deoxyadenosine], the solubility at 120 h in data set [1] (10% hp-β-cd in buffered water, pH 7.3, 4° C., 10% HP-β-CD (W/W), read-out: Solubility of Cladribine at 4° C.) was determined as 4.93 mg/mL (≈ 17.3 mM); in data set [1] (10% hp-β-cd in buffered water, pH 7.3, RT, 10% HP-β-CD (W/W), read-out: Solubility of Cladribine (mg/ml) at RT), 6.4 mg/mL (≈ 22.4 mM); in data set [1] (15% hp-β-cd in buffered water, pH 7.3, 4° C., 15% HP-β-CD (W/W), read-out: Solubility of Cladribine at 4° C.), 6.51 mg/mL (≈ 22.8 mM); in data set [1] (15% hp-β-cd in buffered water, pH 7.3, RT, 15% HP-β-CD (W/W), read-out: Solubility of Cladribine (mg/ml) at RT), 8.47 mg/mL (≈ 29.6 mM); in data set [1] (20% hp-β-cd in buffered water, pH 7.3, 4° C., 20% HP-β-CD (W/W), read-out: Solubility of Cladribine at 4° C.), 8.27 mg/mL (≈ 28.9 mM); in data set [1] (20% hp-β-cd in buffered water, pH 7.3, RT, 20% HP-β-CD (W/W), read-out: Solubility of Cladribine (mg/ml) at RT), 10.5 mg/mL (≈ 36.7 mM). Also, the solubility at 120 h in data set [1] (25% hp-β-cd in buffered water, pH 7.3, 4° C., 25% HP-β-CD (W/W), read-out: Solubility of Cladribine at 4° C.) was determined as 9.91 mg/mL (≈ 34.7 mM); in data set [1] (25% hp-β-cd in buffered water, pH 7.3, RT, 25% HP-β-CD (W/W), read-out: Solubility of Cladribine (mg/ml) at RT) it was 12.4 mg/mL (≈ 43.3 mM). In data set [1] (with cyclodextrin, in words), the “solubility of cladribine in water through use of the cyclodextrin formulation” value is reported as “significantly enhanced; also recorded: greatly increased”. Further, in data set [2] (combined with cyclodextrins, in words), the “stability against hydrolysis when combined with cyclodextrins” value is given as “significantly more stable”. The “stability at lower pH when combined with cyclodextrins like HPCD” value in data set [2] (lower pH, with cyclodextrins like HPCD) is given as “significantly more stable”. Also, the “stability at pH 1.4” value in data set [2] (pH 1.4, room temperature, with HPCD versus cladribine solution without HPCD (FIG. 1)) is on record as “significantly enhanced”. In addition, in data set [3], the solubility is approximately 4520 µg/mL (≈ 15.8 mM). In addition, the stability in acid result in data set [4] (acidic environment of the gastro-intestinal system) is reported as “acid labile”. In addition, the “stability in simple saline solutions” value in data set [4] (simple saline) is “limited stability”. In data set [4] (water), the solubility in water entry is listed as “slightly soluble”.

The values are drawn from patent US6194395A, “Cyclodextrin cladribine formulations” (Orthro-McNeil Pharmaceutical, Inc., priority 1999, dated 2001).
